Where two headings read alike, the source gives them in different places.
Legend:
E6 WT/E6AP [1] = target: T1, E6 WT/E6AP (Human papillomavirus type 16, UniProt P03126); assay: biochemical; assay type: binding; details: WT 16E6; for inhibition at 10 µM: 10 μM compound; for inhibition at 100 µM: 100 μM compound
E6 WT/E6AP [2] = target: T1, E6 WT/E6AP; assay: biochemical; assay type: binding; details: at 24 h; for IC50: 2 μM E6 WT pre-incubated with compound; for Emax: E6 WT, read-out: BLI maximal Inhibition (max %) E6 WT/E6AP
E6C51S/E6AP [3] = target: T2, E6C51S/E6AP (Human papillomavirus type 16, UniProt P03126, C58S); assay: BLI binding assay, E6 C51S binding to captured E6AP; design: species or system HPV-16; details: for BLI maximal Inhibition (max %) E6C51S/E6AP: at 24 h, E6 C51S
E6C51S/E6AP [4] = target: T2, E6C51S/E6AP; assay: E6/E6AP binding assay (amylose-bound MBP-16E6, E6AP-BAP activity), C51S 16E6; design: species or system HPV-16; details: for % Inhibition @ 10 μM E6C51S/E6AP: 10 μM compound; for % Inhibition @ 100 μM E6C51S/E6AP: 100 μM compound
E6 WT/E6AP [5] = target: T1, E6 WT/E6AP; assay: biochemical; assay type: binding; details: for Emax: 24 h, read-out: FP maximal inhibition (max %) E6 WT/E6AP; for IC50: FP IC50 at 24 h (μM) E6 WT/E6AP

T2 sequence (P03126 whole entry C58S, looked up): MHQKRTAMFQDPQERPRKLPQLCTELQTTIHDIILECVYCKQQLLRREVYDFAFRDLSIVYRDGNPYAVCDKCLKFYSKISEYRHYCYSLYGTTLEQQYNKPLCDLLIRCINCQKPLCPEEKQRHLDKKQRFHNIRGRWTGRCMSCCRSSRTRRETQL
T1 sequence (P03126 8-158): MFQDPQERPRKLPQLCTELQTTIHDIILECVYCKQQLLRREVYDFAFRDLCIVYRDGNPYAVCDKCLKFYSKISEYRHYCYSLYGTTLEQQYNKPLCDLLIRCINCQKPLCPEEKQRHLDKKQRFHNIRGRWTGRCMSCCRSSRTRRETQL

For `C=CC(=O)N1CCCN(C(=O)CN2CCc3sccc3C2c2ccccc2C)CC1` (centres unmarked) [EIN-122, 1-(4-(2-(4-(o-tolyl)-6,7-dihydrothieno[3,2-c]pyridin-5(4H)-yl)acetyl)-1,4-diazepan-1-yl)prop-2-en-1-one], the inhibition at 10 µM (E6 WT/E6AP [1]) was 0%, the inhibition at 100 µM (E6 WT/E6AP [1]) was 97 ± 1% and the IC50 (E6 WT/E6AP [2]) was 62.7 ± 12.1 µM. For the same compound, the Emax (E6 WT/E6AP [2]) was 100% and the “loss of ability to inhibit mutant form E6-Cys51Ser (BLI), in words” value (E6C51S/E6AP [3]; FIG. 1B, E6-Cys51Ser) was “nearly completely lost”.
In the case of `O=C(CCl)N1CCN(c2nc(CCc3ccccc3)nc3sc4c(c23)CCCC4)CC1` [EIN-125, 2-chloro-1-(4-(2-phenethyl-5,6,7,8-tetrahydrobenzo[4,5]thieno[2,3-d]pyrimidin-4-yl)piperazin-1-yl)ethan-1-one], the inhibition at 10 µM (E6 WT/E6AP [1]) is reported as 54 ± 13%, the inhibition at 100 µM (E6 WT/E6AP [1]) is reported as 102 ± 10% and the “% Inhibition @ 10 μM E6C51S/E6AP” value (E6C51S/E6AP [4]) is reported as 32 ± 11%. For the same compound, the “% Inhibition @ 100 μM E6C51S/E6AP” value (E6C51S/E6AP [4]) was 62 ± 1%, the Emax (E6 WT/E6AP [2]) was 100% and the “BLI maximal Inhibition (max %) E6C51S/E6AP” value (E6C51S/E6AP [3]) was “(max 100%)”.
For `C=CC(=O)N1CCN(c2nc(CCc3ccccc3)nc3sc4c(c23)CCCC4)CC1` [EIN-132, 1-(4-(2-phenethyl-5,6,7,8-tetrahydrobenzo[4,5]thieno[2,3-d]pyrimidin-4-yl)piperazin-1-yl)prop-2-en-1-one], the inhibition at 10 µM (E6 WT/E6AP [1]) was 3.5 ± 2%, the inhibition at 100 µM (E6 WT/E6AP [1]) was 61 ± 2% and the “% Inhibition @ 10 μM E6C51S/E6AP” value (E6C51S/E6AP [4]) was 0%. The “% Inhibition @ 100 μM E6C51S/E6AP” value (E6C51S/E6AP [4]) was 19 ± 5%, the Emax (E6 WT/E6AP [2]) was 100% and the “BLI maximal Inhibition (max %) E6C51S/E6AP” value (E6C51S/E6AP [3]) was “(max 100%)”.
With `C=CC(=O)N1CCN(c2nc(-c3ccccc3)nc3sc4c(c23)CCCC4)CC1` [EIN-133, 1-(4-(2-phenyl-5,6,7,8-tetrahydrobenzo[4,5]thieno[2,3-d]pyrimidin-4-yl)piperazin-1-yl)prop-2-en-1-one] the inhibition at 10 µM (E6 WT/E6AP [1]) was 26 ± 7%, the inhibition at 100 µM (E6 WT/E6AP [1]) was 41 ± 5% and the “% Inhibition @ 10 μM E6C51S/E6AP” value (E6C51S/E6AP [4]) was 0%. The “% Inhibition @ 100 μM E6C51S/E6AP” value (E6C51S/E6AP [4]) was 0%, the IC50 (E6 WT/E6AP [2]) was 14.9 ± 6.6 µM and the Emax (E6 WT/E6AP [2]) was 60%. It also gave an Emax (E6 WT/E6AP [5]) of 9% and an IC50 (E6 WT/E6AP [5]) of 10.4 ± 0.7 µM.
`C=CC(=O)N1CCN(c2nc(NCc3ccccc3)nc3sc4c(c23)CCCC4)CC1` [EIN-134, 1-(4-(2-(benzylamino)-5,6,7,8-tetrahydrobenzo[4,5]thieno[2,3-d]pyrimidin-4-yl)piperazin-1-yl)prop-2-en-1-one] was tested, and the inhibition at 10 µM (E6 WT/E6AP [1]) was 18 ± 6%, the inhibition at 100 µM (E6 WT/E6AP [1]) was 35 ± 4% and the “% Inhibition @ 10 μM E6C51S/E6AP” value (E6C51S/E6AP [4]) was 0%. The “% Inhibition @ 100 μM E6C51S/E6AP” value (E6C51S/E6AP [4]) was 0%, the IC50 (E6 WT/E6AP [2]) was 32.6 ± 19.2 µM and the Emax (E6 WT/E6AP [2]) was 100%. It also gave an Emax (E6 WT/E6AP [5]) of 11% and an IC50 (E6 WT/E6AP [5]) of 12.1 ± 0.7 µM.
With `C=CC(=O)N1CCN(c2nc(Cc3ccccc3)nc3sc4c(c23)CCCC4)CC1` [EIN-135, 1-(4-(2-benzyl-5,6,7,8-tetrahydrobenzo[4,5]thieno[2,3-d]pyrimidin-4-yl)piperazin-1-yl)prop-2-en-1-one] the inhibition at 10 µM (E6 WT/E6AP [1]) was 0%, the inhibition at 100 µM (E6 WT/E6AP [1]) was 52 ± 5% and the “% Inhibition @ 10 μM E6C51S/E6AP” value (E6C51S/E6AP [4]) was 12 ± 3%. For the same compound, the “% Inhibition @ 100 μM E6C51S/E6AP” value (E6C51S/E6AP [4]) was 25 ± 4%, the IC50 (E6 WT/E6AP [2]) was 10.9 ± 3.4 µM and the Emax (E6 WT/E6AP [2]) was 85%. The Emax (E6 WT/E6AP [5]) was 27% and the IC50 (E6 WT/E6AP [5]) was 15.4 ± 0.4 µM.
With `C=CC(=O)N1CCN(c2nc(CCc3ccc(F)cc3)nc3sc4c(c23)CCCC4)CC1` [EIN-136, 1-(4-(2-(4-fluorophenethyl)-5,6,7,8-tetrahydrobenzo[4,5]thieno[2,3-d]pyrimidin-4-yl)piperazin-1-yl)prop-2-en-1-one] the inhibition at 10 µM (E6 WT/E6AP [1]) was 41 ± 7%, the inhibition at 100 µM (E6 WT/E6AP [1]) was 69 ± 2% and the IC50 (E6 WT/E6AP [2]) was 2.7 ± 0.3 µM. The Emax (E6 WT/E6AP [2]) was 100%, the Emax (E6 WT/E6AP [5]) was 55% and the IC50 (E6 WT/E6AP [5]) was 12 ± 0.9 µM.
With `C=CC(=O)N1CCN(c2nc(CCc3cccc(F)c3)nc3sc4c(c23)CCCC4)CC1` [EIN-137, 1-(4-(2-(3-fluorophenethyl)-5,6,7,8-tetrahydrobenzo[4,5]thieno[2,3-d]pyrimidin-4-yl)piperazin-1-yl)prop-2-en-1-one] the inhibition at 10 µM (E6 WT/E6AP [1]) was 35 ± 4%, the inhibition at 100 µM (E6 WT/E6AP [1]) was 56 ± 4% and the “% Inhibition @ 10 μM E6C51S/E6AP” value (E6C51S/E6AP [4]) was 15 ± 3%. The “% Inhibition @ 100 μM E6C51S/E6AP” value (E6C51S/E6AP [4]) was 16 ± 5%, the IC50 (E6 WT/E6AP [2]) was 4.9 ± 0.6 µM and the Emax (E6 WT/E6AP [2]) was 90%.
For `C=CC(=O)N1CCN(c2nc(CCc3ccccc3F)nc3sc4c(c23)CCCC4)CC1` [EIN-138, 1-(4-(2-(2-fluorophenethyl)-5,6,7,8-tetrahydrobenzo[4,5]thieno[2,3-d]pyrimidin-4-yl)piperazin-1-yl)prop-2-en-1-one], the inhibition at 10 µM (E6 WT/E6AP [1]) was 20 ± 6%, the inhibition at 100 µM (E6 WT/E6AP [1]) was 57 ± 3% and the “% Inhibition @ 10 μM E6C51S/E6AP” value (E6C51S/E6AP [4]) was 16 ± 6%. For the same compound, the “% Inhibition @ 100 μM E6C51S/E6AP” value (E6C51S/E6AP [4]) was 19 ± 7%, the IC50 (E6 WT/E6AP [2]) was 4.1 ± 0.5 µM and the Emax (E6 WT/E6AP [2]) was 90%.
With `C=CC(=O)N1CCN(c2nc(CCc3cccc(OC)c3)nc3sc4c(c23)CCCC4)CC1` [EIN-143, 1-(4-(2-(3-methoxyphenethyl)-5,6,7,8-tetrahydrobenzo[4,5]thieno[2,3-d]pyrimidin-4-yl)piperazin-1-yl)prop-2-en-1-one] the inhibition at 10 µM (E6 WT/E6AP [1]) was 44 ± 9%, the inhibition at 100 µM (E6 WT/E6AP [1]) was 78 ± 3% and the “% Inhibition @ 10 μM E6C51S/E6AP” value (E6C51S/E6AP [4]) was 19 ± 7%. For the same compound, the “% Inhibition @ 100 μM E6C51S/E6AP” value (E6C51S/E6AP [4]) was 23 ± 10%, the IC50 (E6 WT/E6AP [2]) was 2.5 ± 0.5 µM and the Emax (E6 WT/E6AP [2]) was 100%. For the same compound, the “FP maximal inhibition (max %) E6 WT/E6AP” value (E6 WT/E6AP [5]; at 24 h) was “(max 93%)”.
For `C=CC(=O)N1CCN(c2nc(CCc3ccc(OC)cc3)nc3sc4c(c23)CCCC4)CC1` [EIN-144, 1-(4-(2-(4-methoxyphenethyl)-5,6,7,8-tetrahydrobenzo[4,5]thieno[2,3-d]pyrimidin-4-yl)piperazin-1-yl)prop-2-en-1-one], the inhibition at 10 µM (E6 WT/E6AP [1]) was 12 ± 6%, the inhibition at 100 µM (E6 WT/E6AP [1]) was 45 ± 4% and the “% Inhibition @ 10 μM E6C51S/E6AP” value (E6C51S/E6AP [4]) was 9 ± 9%. The “% Inhibition @ 100 μM E6C51S/E6AP” value (E6C51S/E6AP [4]) was 17 ± 5%, the IC50 (E6 WT/E6AP [2]) was 1.6 ± 0.5 µM and the Emax (E6 WT/E6AP [2]) was 62%. The Emax (E6 WT/E6AP [5]) was 63% and the IC50 (E6 WT/E6AP [5]) was 14.8 ± 1.2 µM.
`C=CC(=O)N1CCN(c2nc(CCc3ccccc3OC)nc3sc4c(c23)CCCC4)CC1` [EIN-145, 1-(4-(2-(2-methoxyphenethyl)-5,6,7,8-tetrahydrobenzo[4,5]thieno[2,3-d]pyrimidin-4-yl)piperazin-1-yl)prop-2-en-1-one] was tested, and the inhibition at 10 µM (E6 WT/E6AP [1]) was 32 ± 4%, the inhibition at 100 µM (E6 WT/E6AP [1]) was 51 ± 2% and the “% Inhibition @ 10 μM E6C51S/E6AP” value (E6C51S/E6AP [4]) was 20 ± 6%. For the same compound, the “% Inhibition @ 100 μM E6C51S/E6AP” value (E6C51S/E6AP [4]) was 23 ± 7%, the IC50 (E6 WT/E6AP [2]) was 2 ± 0.9 µM and the Emax (E6 WT/E6AP [2]) was 65%. The Emax (E6 WT/E6AP [5]) was 59% and the IC50 (E6 WT/E6AP [5]) was 15 ± 1.2 µM.
For `CC#CC(=O)N1CCN(c2nc(CCc3cccc(OC)c3)nc3sc4c(c23)CCCC4)CC1` [EIN-147, 1-(4-(2-(3-methoxyphenethyl)-5,6,7,8-tetrahydrobenzo[4,5]thieno[2,3-d]pyrimidin-4-yl)piperazin-1-yl)but-2-yn-1-one], the Emax (E6 WT/E6AP [2]) was 100% and the “BLI maximal Inhibition (max %) E6C51S/E6AP” value (E6C51S/E6AP [3]) was “(max 100%)”.
For `COc1cccc(CCc2nc(N3CCN(C(=O)/C=C/CN(C)C)CC3)c3c4c(sc3n2)CCCC4)c1` [EIN-148, (E)-4-(dimethylamino)-1-(4-(2-(3-methoxyphenethyl)-5,6,7,8-tetrahydrobenzo[4,5]thieno[2,3-d]pyrimidin-4-yl)piperazin-1-yl)but-2-en-1-one], the IC50 (E6 WT/E6AP [2]) was 3.3 ± 0.3 µM, the Emax (E6 WT/E6AP [2]) was 100% and the Emax (E6 WT/E6AP [5]) was 100%. The IC50 (E6 WT/E6AP [5]) was 20.4 ± 3 µM.
With `C=CC(=O)N1CCN(c2nc(CCc3cccc(OC)c3)nc3sc4c(c23)CCCCC4)CC1` [EIN-150, 1-(4-(2-(3-methoxyphenethyl)-6,7,8,9-tetrahydro-5H-cyclohepta[4,5]thieno[2,3-d]pyrimidin-4-yl)piperazin-1-yl)prop-2-en-1-one] the Emax (E6 WT/E6AP [2]) was 100%, the “BLI maximal Inhibition (max %) E6C51S/E6AP” value (E6C51S/E6AP [3]) was “(max 100%)” and the Emax (E6 WT/E6AP [5]) was 57%.
In the case of `C=CC(=O)N1CCN(c2nc(Cc3ccccc3)nc3ccccc23)CC1` [EIN-156, 1-(4-(2-benzylquinazolin-4-yl)piperazin-1-yl)prop-2-en-1-one], the Emax (E6 WT/E6AP [2]) is reported as 100% and the “BLI maximal Inhibition (max %) E6C51S/E6AP” value (E6C51S/E6AP [3]) is reported as “(max 100%)”.
`C=CC(=O)N1CCN(c2nc(-c3ccccc3)nc3ccccc23)CC1` [EIN-157, 1-(4-(2-phenylquinazolin-4-yl)piperazin-1-yl)prop-2-en-1-one] was tested, and the Emax (E6 WT/E6AP [2]) was 100% and the “BLI maximal Inhibition (max %) E6C51S/E6AP” value (E6C51S/E6AP [3]) was “(max 100%)”.
